According to patent US20090118331A1, “Use of Lobeline Epimers in the Treatment of Central Nervous System Diseases, Pathologies, and Drug Abuse” (priority 2007, published 2009):

Assays:
[1] = Lobeline epimerization in pH 7.4 phosphate buffer control; conditions: after 2 hours, with impurity
Description: In order to determine the tendency of lobeline to undergo epimerization in the HEPES buffer employed in the 25° C. [^3H]DTBZ binding study and the 37° C. VMAT2 uptake studies previously described, analogous solution epimerization experiments were conducted using the corresponding conditions for each individual assay. […] As this dynamic phenomenon occurs, the ratio of lobeline to lobeline epimer in solution naturally changes over time. Further, depending upon the solution conditions, the rate and extent of epimerization may vary; thus, a ratio of lobeline to epimer, if achieved, may occur at various time points. After 2 hours, the 25° C. […] The epimerization of lobeline in the 37° C.

in vivo = conditions: for AUC(0-inf) / AUC(0-t) / Cmax / MRT last / Tmax / Vd / clearance / half-life: rat, in vivo
Description: Here, serial doses of lobeline were administered to male and female rats intravenously, subcutaneously or orally, and the pharmacokinetic profiles of the parent lobeline and its epimer were monitored in plasma.

[2] = Lobeline conversion to epimer in deionized water (HPLC); assay type: physicochemical
Description: Extensive in vitro studies on the epimerization of lobeline were conducted in a variety of aqueous media. […] The concentration of the lobeline solution (500 mL) was ca. 0.5 mg/mL, and 1.5 mL aliquot parts were removed in triplicate at each time point and analyzed by HPLC. Corresponding pH measurements were performed with a Coming Model 240 pH meter.

clinical = conditions: human, in vivo
Description: Three consecutive doses of lobeline (either 30, 45 and 45 mg in the first study group, or 60, 60 and 60 mg in the second group) were administered to human volunteers at 0800, 1200 and 1600 over two full inpatient days. The pharmacokinetics of lobeline and epimer were then assessed in each subject. […] A crude index of accumulation (non-steady state) was obtained by dividing the sixth dose trough concentration by that observed for the fifth dose.

With CN1[C@@H](CC(=O)c2ccccc2)CCC[C@H]1C[C@H](O)c1ccccc1 [Lobeline, 2-[6S-(2S-hydroxy-2-phenyl-ethyl)-1-methyl-piperidin-2R-yl]-1-phenyl-ethanone] the “component content of solution” value ([1]; pH 7.4 phosphate buffer control, same temperature as 25° C. binding buffer) was 64%, the “component content of solution” value ([1]; phosphate buffer control for the 37° C. VMAT2 uptake buffer) was 62% and the AUC(0-inf) (in vivo; female, iv, 2 mg/kg) was 134 ng·h/mL. It also gave an AUC(0-t) (in vivo; female, iv, 2 mg/kg) of 133 ng·h/mL, a Cmax (in vivo; female, iv, 2 mg/kg) of 106 ng/mL and an MRT last (in vivo; female, iv, 2 mg/kg) of 1.72 h. It also gave a Tmax (in vivo; female, iv, 2 mg/kg) of 4.98 min, a Vd (in vivo; female, iv, 2 mg/kg) of 27.2 L/kg and a clearance (in vivo; female, iv, 2 mg/kg) of 0.248 mL/min/kg. It also gave a half-life (in vivo; female, iv, 2 mg/kg) of 111 min, an AUC(0-inf) (in vivo; female, po, 20 mg/kg) of 64.5 ng·h/mL and an AUC(0-t) (in vivo; female, po, 20 mg/kg) of 62.7 ng·h/mL. The Cmax (in vivo; female, po, 20 mg/kg) was 42.5 ng/mL, the MRT last (in vivo; female, po, 20 mg/kg) was 1.92 h and the Tmax (in vivo; female, po, 20 mg/kg) was 30 min. It also gave a half-life (in vivo; female, po, 20 mg/kg) of 137 min, an AUC(0-inf) (in vivo; female, sc, 3 mg/kg) of 193 ng·h/mL and an AUC(0-t) (in vivo; female, sc, 3 mg/kg) of 191 ng·h/mL. The Cmax (in vivo; female, sc, 3 mg/kg) was 142 ng/mL, the MRT last (in vivo; female, sc, 3 mg/kg) was 1.42 h and the Tmax (in vivo; female, sc, 3 mg/kg) was 15 min. The half-life (in vivo; female, sc, 3 mg/kg) was 68.4 min, the AUC(0-inf) (in vivo; male, iv, 2 mg/kg) was 135 ng·h/mL and the AUC(0-t) (in vivo; male, iv, 2 mg/kg) was 134 ng·h/mL. For the same compound, the Cmax (in vivo; male, iv, 2 mg/kg) was 144 ng/mL, the MRT last (in vivo; male, iv, 2 mg/kg) was 1.54 h and the Tmax (in vivo; male, iv, 2 mg/kg) was 4.98 min. The Vd (in vivo; male, iv, 2 mg/kg) was 23.8 L/kg, the clearance (in vivo; male, iv, 2 mg/kg) was 0.247 mL/min/kg and the half-life (in vivo; male, iv, 2 mg/kg) was 101 min. It also gave an AUC(0-inf) (in vivo; male, po, 20 mg/kg) of 105 ng·h/mL, an AUC(0-t) (in vivo; male, po, 20 mg/kg) of 104 ng·h/mL and a Cmax (in vivo; male, po, 20 mg/kg) of 91.2 ng/mL. It also gave an MRT last (in vivo; male, po, 20 mg/kg) of 1.88 h, a Tmax (in vivo; male, po, 20 mg/kg) of 30 min and a half-life (in vivo; male, po, 20 mg/kg) of 118 min. The AUC(0-inf) (in vivo; male, sc, 3 mg/kg) was 191 ng·h/mL, the AUC(0-t) (in vivo; male, sc, 3 mg/kg) was 190 ng·h/mL and the Cmax (in vivo; male, sc, 3 mg/kg) was 162 ng/mL. For the same compound, the MRT last (in vivo; male, sc, 3 mg/kg) was 1.35 h, the Tmax (in vivo; male, sc, 3 mg/kg) was 4.98 min and the half-life (in vivo; male, sc, 3 mg/kg) was 70.8 min. The “ratio of lobeline to epimer in plasma (comparison of AUC; x to 1)” value (in vivo; rats, depending on sex and route of administration) was 1.5-2, the “systemic absorption of lobeline, followed by subsequent epimerization, when given orally” value (in vivo; rats, females compared to males) was “significantly reduced in females as compared to males” and the “% Lobeline (Mean ± SD)” value ([2]; Solution 1 (Lobeline in “fresh” DI Water), time 0, pH 6.02) was 99.16%. The “% Lobeline (Mean ± SD)” value ([2]; Solution 1 (“fresh” DI Water), 15 min, pH 6.03-6.24) was 99.17 ± 0.053%, the “% Lobeline (Mean ± SD)” value ([2]; Solution 1 (“fresh” DI Water), 30 min, pH 6.02-6.24) was 99.01 ± 0.162% and the “% Lobeline (Mean ± SD)” value ([2]; Solution 1 (“fresh” DI Water), 45 min, pH 6.13-6.37) was 99.06 ± 0.146%. The “% Lobeline (Mean ± SD)” value ([2]; Solution 1 (“fresh” DI Water), 1 h, pH 6.26-6.52) was 99.00 ± 0.195%, the “% Lobeline (Mean ± SD)” value ([2]; Solution 1 (“fresh” DI Water), 80 min, pH 6.19-6.50) was 98.54 ± 0.112% and the “% Lobeline (Mean ± SD)” value ([2]; Solution 1 (“fresh” DI Water), 100 min, pH 6.16-6.50) was 98.50 ± 0.139%. The “% Lobeline (Mean ± SD)” value ([2]; Solution 1 (“fresh” DI Water), 2 h, pH 5.63-5.88) was 98.42 ± 0.601%, the “% Lobeline (Mean ± SD)” value ([2]; Solution 2 (Lobeline in “8-h” DI Water), time 0, pH 7.87) was 98.97% and the “% Lobeline (Mean ± SD)” value ([2]; Solution 2 (“8-h” DI Water), 15 min, pH 7.78-8.21) was 99.34 ± 0.274%. The “% Lobeline (Mean ± SD)” value ([2]; Solution 2 (“8-h” DI Water), 30 min, pH 7.58-7.85) was 99.49 ± 0.215%, the “% Lobeline (Mean ± SD)” value ([2]; Solution 2 (“8-h” DI Water), 45 min, pH 7.66-7.68) was 99.35 ± 0.056% and the “% Lobeline (Mean ± SD)” value ([2]; Solution 2 (“8-h” DI Water), 1 h, pH 6.84-7.11) was 99.20 ± 0.085%. The “% Lobeline (Mean ± SD)” value ([2]; Solution 2 (“8-h” DI Water), 80 min, pH 6.53-6.79) was 99.11 ± 0.150%, the “% Lobeline (Mean ± SD)” value ([2]; Solution 2 (“8-h” DI Water), 100 min, pH 6.24-6.51) was 98.99 ± 0.206% and the “% Lobeline (Mean ± SD)” value ([2]; Solution 2 (“8-h” DI Water), 2 h, pH 6.21-6.49) was 98.78 ± 0.258%. For the same compound, the “conversion of lobeline to lobeline epimer” value ([2]; fresh deionized water or water allowed to absorb atmospheric carbon dioxide for up to 8 hours, 2 hour time course) was “ca. 1%” and the half-life (clinical) was 235 min.
